19 compounds from patent publication US10208046B2, “Nitrogen-containing heterocyclic compound” (Takeda Pharmaceutical Company Limited, priority 2014, dated 2019) can be followed below.

Molecules are shown by their SMILES.

This test deals with T1, human M1 receptor (hCHRM1) (Homo sapiens, UniProt P11229).
T1 construct: expressed in transfected cells
T1 sequence (P11229 1-460): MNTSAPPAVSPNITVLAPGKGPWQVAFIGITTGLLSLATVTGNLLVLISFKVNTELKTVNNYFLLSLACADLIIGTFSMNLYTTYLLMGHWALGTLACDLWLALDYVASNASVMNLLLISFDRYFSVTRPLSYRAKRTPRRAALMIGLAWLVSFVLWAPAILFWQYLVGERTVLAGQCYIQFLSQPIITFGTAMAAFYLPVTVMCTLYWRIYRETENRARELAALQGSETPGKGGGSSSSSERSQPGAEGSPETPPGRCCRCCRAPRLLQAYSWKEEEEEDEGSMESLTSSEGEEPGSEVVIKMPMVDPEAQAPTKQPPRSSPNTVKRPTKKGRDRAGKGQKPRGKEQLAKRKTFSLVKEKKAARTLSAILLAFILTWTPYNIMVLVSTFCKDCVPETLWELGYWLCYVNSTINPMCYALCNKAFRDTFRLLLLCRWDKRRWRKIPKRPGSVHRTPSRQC
The experiment in a line: Measurement of M1 receptor positive allosteric modulator (M1PAM) activity, calcium fluorescence in CHO-K1 cells.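 For EC50: potency reported as IP value in nM.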 In kind it is cell-based. The settings on record: for activity (%) at 10 μM: 10 μM test compound with acetylcholine at EC20, 100% = acetylcholine 1 μM, 0% = DMSO; for EC50: inflection point in the concentration-dependent curve, acetylcholine at EC20 (final 0.6-0.8 nM), CHO-K1 cells expressing human M1, Fluo-4, FLIPRtetra, read-out: IP value. Here is the method: Measurement of M1 Receptor Positive Allosteric Modulator (M1PAM) Activity
The activity of a test compound in the presence of acetylcholine at EC20 concentration (final concentration 0.6-0.8 nM), which affords an action corresponding to about 20% of the maximum activity, was measured as PAM activity. The method is as follows. CHO-K1 cells stably expressing a human M1 receptor (hCHRM1) were plated on a 384-well black clear bottom plate (BD Falcon) at 5,000 cells/well, and cultured in an incubator at 37° C., 5% CO2 for 1 day. The medium in the cell plate was removed, and assay buffer A containing calcium indicator (Recording medium (DOJINDO LABORATORIES), 0.1% BSA (Wako Pure Chemical Industries, Ltd.), 2.5 μg/mL Fluo-4 AM (DOJINDO LABORATORIES), 0.08% Pluronic F127 (DOJINDO LABORATORIES), 1.25 mM probenecid (DOJINDO LABORATORIES)) was added at 30 μL/well. The cells were left standing in the incubator at 37° C., 5% CO2 for 30 min, and further left standing at room temperature for 30 min. A test compound prepared by diluting with assay buffer B (HBSS (Invitrogen), 20 mM HEPES (Invitrogen), 0.1% BSA) containing 2.4-3.2 nM acetylcholine was added at 10 μL/well, and the fluorescence was measured by FLIPRtetra (Molecular Devices) for 1 min every 1 second. With the definition that the amount of change in the fluorescence on addition of acetylcholine (final concentration 1 μM) is 100% and that on addition of DMSO instead of a test compound is 0%, the activity (%) of the test compound was calculated, and the inflection point in the concentration-dependent curve of the test compound was calculated as IP values.

For the compound `CCC(F)(F)COc1ncnc2c1C(=O)N(Cc1ccc(-c3cnn(C)c3)cc1)C2` [Example 75, 4-(2,2-difluorobutoxy)-6-(4-(1-methyl-1H-pyrazol-4-yl)benzyl)-6,7-dihydro-5H-pyrrolo[3,4-d]pyrimidin-5-one], the “activity (%) at 10 μM” value was determined as 98% and the EC50 turned out to be 13 nM.
As to `CCC(F)(F)COc1nccc2c1C(=O)N(Cc1ccc(-c3cnn(CC(F)F)c3)cc1)C2` [Example 76, 4-(2,2-difluorobutoxy)-2-(4-(1-(2,2-difluoroethyl)-1H-pyrazol-4-yl)benzyl)-1,2-dihydro-3H-pyrrolo[3,4-c]pyridin-3-one], the “activity (%) at 10 μM” value amounted to 94% and the EC50 stood at 45 nM.
On the same counts, the results for `CCn1cc(-c2ccc(CN3Cc4ccnc(OCC(F)(F)CC)c4C3=O)cc2)cn1` [Example 77, 4-(2,2-difluorobutoxy)-2-(4-(1-ethyl-1H-pyrazol-4-yl)benzyl)-1,2-dihydro-3H-pyrrolo[3,4-c]pyridin-3-one] are 99% and 68 nM.
For `Cn1cc(-c2ccc(CN3Cc4ncnc(OCC(C)(F)F)c4C3=O)cc2)cn1` [Example 78, 4-(2,2-difluoropropoxy)-6-(4-(1-methyl-1H-pyrazol-4-yl)benzyl)-6,7-dihydro-5H-pyrrolo[3,4-d]pyrimidin-5-one], the “activity (%) at 10 μM” value is listed as 95% and the EC50 came to 19 nM.
On the same counts, the results for `Cn1cc(-c2ccc(CN3Cc4ccnc(OCC(C)(C)F)c4C3=O)c(F)c2)cn1` [Example 81, 4-(2-fluoro-2-methylpropoxy)-2-(2-fluoro-4-(1-methyl-1H-pyrazol-4-yl)benzyl)-1,2-dihydro-3H-pyrrolo[3,4-c]pyridin-3-one] are 88% and 32 nM.
On the same counts, the results for `Cc1nn(C)cc1-c1ccc(CN2Cc3ccnc(OCC(C)(C)F)c3C2=O)c(F)c1` [Example 82, 2-(4-(1,3-dimethyl-1H-pyrazol-4-yl)-2-fluorobenzyl)-4-(2-fluoro-2-methylpropoxy)-1,2-dihydro-3H-pyrrolo[3,4-c]pyridin-3-one] are 95% and 17 nM.
As for `CCn1cc(-c2ccc(CN3Cc4ccnc(OCC(C)(F)F)c4C3=O)cc2)cn1` [Example 84, 4-(2,2-difluoropropoxy)-2-(4-(1-ethyl-1H-pyrazol-4-yl)benzyl)-1,2-dihydro-3H-pyrrolo[3,4-c]pyridin-3-one], the “activity (%) at 10 μM” value is given as 96% and the EC50 is 72 nM.
Taken in the same sequence, the figures for `Cn1cc(-c2ccc(CN3Cc4ccnc(OCC(C)(F)F)c4C3=O)c(F)c2)cn1` [Example 86, 4-(2,2-difluoropropoxy)-2-(2-fluoro-4-(1-methyl-1H-pyrazol-4-yl)benzyl)-1,2-dihydro-3H-pyrrolo[3,4-c]pyridin-3-one] were 91% and 21 nM.
Taken in the same sequence, the figures for `Cn1cc(-c2ccc(CN3Cc4ccnc(OCC(F)(F)F)c4C3=O)c(F)c2)cn1` [Example 87, 2-(2-fluoro-4-(1-methyl-1H-pyrazol-4-yl)benzyl)-4-(2,2,2-trifluoroethoxy)-1,2-dihydro-3H-pyrrolo[3,4-c]pyridin-3-one] were 101% and 32 nM.
For the compound `Cc1nn(C)cc1-c1ccc(CN2Cc3ccnc(OCC(F)(F)F)c3C2=O)c(F)c1` [Example 88, 2-(4-(1,3-dimethyl-1H-pyrazol-4-yl)-2-fluorobenzyl)-4-(2,2,2-trifluoroethoxy)-1,2-dihydro-3H-pyrrolo[3,4-c]pyridin-3-one], the “activity (%) at 10 μM” value amounted to 101% and the EC50 is 74 nM.
On the same counts, the results for `CCC(F)(F)COc1nccc2c1C(=O)N(Cc1ccc(-c3cnn(C)c3)cc1F)C2` [Example 92, 4-(2,2-difluorobutoxy)-2-(2-fluoro-4-(1-methyl-1H-pyrazol-4-yl)benzyl)-1,2-dihydro-3H-pyrrolo[3,4-c]pyridin-3-one] are 94% and 15 nM.
Taken in the same sequence, the figures for `CCC(F)(F)COc1nccc2c1C(=O)N(Cc1ccc(-c3ccn(C)n3)cc1F)C2` [Example 97, 4-(2,2-difluorobutoxy)-2-(2-fluoro-4-(1-methyl-1H-pyrazol-3-yl)benzyl)-1,2-dihydro-3H-pyrrolo[3,4-c]pyridin-3-one] were 104% and 77 nM.
On the same counts, the results for `Cn1cc(-c2ccc(CN3Cc4ncnc(OCC(F)(F)F)c4C3=O)cc2)nn1` [Example 104, 6-(4-(1-methyl-1H-1,2,3-triazol-4-yl)benzyl)-4-(2,2,2-trifluoroethoxy)-6,7-dihydro-5H-pyrrolo[3,4-d]pyrimidin-5-one] are 95% and 61 nM.
Regarding `Cn1cc(-c2ccc(CN3Cc4ccnc(OCC(C)(F)F)c4C3=O)c(F)c2)nn1` [Example 106, 4-(2,2-difluoropropoxy)-2-(2-fluoro-4-(1-methyl-1H-1,2,3-triazol-4-yl)benzyl)-1,2-dihydro-3H-pyrrolo[3,4-c]pyridin-3-one], the “activity (%) at 10 μM” value came out at 90% and the EC50 was determined as 29 nM.
In the case of `Cn1cc(-c2ccc(CN3Cc4ccnc(OCC(C)(F)F)c4C3=O)cc2)nn1` [Example 107, 4-(2,2-difluoropropoxy)-2-(4-(1-methyl-1H-1,2,3-triazol-4-yl)benzyl)-1,2-dihydro-3H-pyrrolo[3,4-c]pyridin-3-one], the “activity (%) at 10 μM” value was found to be 92% and the EC50 is 72 nM.
In the case of `Cc1nn(C)cc1-c1ccc(CN2Cc3ccnc(OCC(C)(F)F)c3C2=O)c(F)c1` [Example 108, 4-(2,2-difluoropropoxy)-2-(4-(1,3-dimethyl-1H-pyrazol-4-yl)-2-fluorobenzyl)-1,2-dihydro-3H-pyrrolo[3,4-c]pyridin-3-one], the “activity (%) at 10 μM” value is on record as 94% and the EC50 was determined as 16 nM.
Taken in the same sequence, the figures for `Cc1nn(C)cc1-c1ccc(CN2Cc3ccnc(OCC(F)F)c3C2=O)c(F)c1` [Example 112, 4-(2,2-difluoroethoxy)-2-(4-(1,3-dimethyl-1H-pyrazol-4-yl)-2-fluorobenzyl)-1,2-dihydro-3H-pyrrolo[3,4-c]pyridin-3-one] were 101% and 41 nM.
Taken in the same sequence, the figures for `Cn1cc(-c2ccc(CN3Cc4ccnc(OCC(F)(F)F)c4C3=O)c(F)c2)nn1` [Example 114, 2-(2-fluoro-4-(1-methyl-1H-1,2,3-triazol-4-yl)benzyl)-4-(2,2,2-trifluoroethoxy)-1,2-dihydro-3H-pyrrolo[3,4-c]pyridin-3-one] were 102% and 56 nM.
On to `Cn1cc(-c2ccc(CN3Cc4ccnc(OCC(F)F)c4C3=O)c(F)c2)nn1` [Example 115, 4-(2,2-difluoroethoxy)-2-(2-fluoro-4-(1-methyl-1H-1,2,3-triazol-4-yl)benzyl)-1,2-dihydro-3H-pyrrolo[3,4-c]pyridin-3-one], for which the “activity (%) at 10 μM” value stood at 98% and the EC50 was 43 nM.
